According to PubChem BioAssay AID1963869 (Molecular Pharmacology Branch, DTP, NCI, 2024):

Test system: KRAS patient-derived spheroids with HUVEC/MSC, viability
Assay: Anticancer human tumor 323965-272-R-J2-PDC patient-derived pancreatic carcinoma cell line growth inhibition [KRAS2]
Conditions: for IC50: curve of first compound; for viability, T/C: stronger effect = lower value
How it was run: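 KRAS-mutant tumor cells were grown as spheroids with HUVEC endothelial cells and human MSCs as stroma. Targeted agents were tested alone and with KRAS pathway inhibitors. Doses started at or near clinical Cmax, or 10 microM, descending half-log.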

[1] = second compound 0.0316 µM, first compound 0.000316 µM
[2] = second compound 0.0316 µM, first compound 0.001 µM
[3] = second compound 0.0316 µM, first compound 0.00316 µM
[4] = second compound 0.0316 µM, first compound 0.01 µM
[5] = second compound 0.0316 µM, first compound 0.0316 µM
[6] = second compound 0.1 µM, first compound 0.000316 µM
[7] = second compound 0.1 µM, first compound 0.001 µM
[8] = second compound 0.1 µM, first compound 0.00316 µM
[9] = second compound 0.1 µM, first compound 0.01 µM
[10] = second compound 0.1 µM, first compound 0.0316 µM
[11] = second compound 0.316 µM, first compound 0.000316 µM
[12] = second compound 0.316 µM, first compound 0.001 µM
[13] = second compound 0.316 µM, first compound 0.00316 µM
[14] = second compound 0.316 µM, first compound 0.01 µM
[15] = second compound 0.316 µM, first compound 0.0316 µM
[16] = second compound 1 µM, first compound 0.000316 µM
[17] = second compound 1 µM, first compound 0.001 µM
[18] = second compound 1 µM, first compound 0.00316 µM
[19] = second compound 1 µM, first compound 0.01 µM
[20] = second compound 1 µM, first compound 0.0316 µM
[21] = second compound 3.16 µM, first compound 0.000316 µM
[22] = second compound 3.16 µM, first compound 0.001 µM
[23] = second compound 3.16 µM, first compound 0.00316 µM
[24] = second compound 3.16 µM, first compound 0.01 µM
[25] = second compound 3.16 µM, first compound 0.0316 µM
[26] = second compound 0.0316 µM, first compound 0.1 µM
[27] = second compound 0.1 µM, first compound 0.1 µM
[28] = second compound 0.316 µM, first compound 0.1 µM
[29] = second compound 1 µM, first compound 0.1 µM
[30] = second compound 3.16 µM, first compound 0.1 µM
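Note: spheroids exposed to agents for 7 days.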
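Throughout, for viability, T/C: 100% = DMSO vehicle control viability.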

Row | SMILES | IC50 (second compound 0.0316 µM) [nM] | IC50 (second compound 0.1 µM) [nM] | IC50 (second compound 0.316 µM) [nM] | IC50 (second compound 1 µM) [nM] | IC50 (second compound 3.16 µM) [nM] | viability, T/C [1] [%] | viability, T/C [2] [%] | viability, T/C [3] [%] | viability, T/C [4] [%] | viability, T/C [5] [%] | viability, T/C [6] [%] | viability, T/C [7] [%] | viability, T/C [9] [%] | viability, T/C [10] [%] | viability, T/C [14] [%] | viability, T/C [15] [%] | viability, T/C [19] [%] | viability, T/C [20] [%] | viability, T/C [24] [%] | viability, T/C [25] [%] | also measured
1 | CC(=O)Nc1cccc(-n2c(=O)n(C3CC3)c(=O)c3c(Nc4ccc(I)cc4F)n(C)c(=O)c(C)c32)c1 + C=CC(=O)N1CCN(c2nc(OCC3CCCN3C)nc3c2CCN(c2cccc4cccc(C)c24)C3)CC1CC#N | 1.71 | 0.644 | 0.255 | 0.361 | < 0.1 | 63.8 | 53.4 | 44 | 34.1 | 23.9 | 56.8 | 46.8 | 32.1 | 22.7 | 27.4 | 18.8 | 28.3 | 18.9 | 4.06 | 5.52 | viability, T/C (second compound 0.0316 µM, first compound 0.0001 µM): 62.1%; viability, T/C (second compound 0.1 µM, first compound 0.0001 µM): 64.4%; viability, T/C [8]: 35.4%; viability, T/C (second compound 0.316 µM, first compound 0.0001 µM): 56.7%; viability, T/C [11]: 46.6%; viability, T/C [12]: 43.6%; viability, T/C [13]: 31.6%; viability, T/C (second compound 1 µM, first compound 0.0001 µM): 56.6%; viability, T/C [16]: 53.8%; viability, T/C [17]: 40%; viability, T/C [18]: 37.2%; viability, T/C (second compound 3.16 µM, first compound 0.0001 µM): 26%; viability, T/C [21]: 28.5%; viability, T/C [22]: 17%; viability, T/C [23]: 22.4%
2 | CC(=O)OC12COC1CC(O)C1(C)C(=O)C(O)C3=C(C)C(OC(=O)C(O)C(NC(=O)OC(C)(C)C)c4ccccc4)CC(O)(C(OC(=O)c4ccccc4)C21)C3(C)C (stereo not given) + C=CC(=O)N1CCN(c2nc(OCC3CCCN3C)nc3c2CCN(c2cccc4cccc(C)c24)C3)CC1CC#N | < 10 | < 10 | < 10 | < 10 | < 10 | – | – | – | 25.4 | 23.9 | – | – | 21.5 | 22.9 | 20.1 | 21.1 | 19.4 | 17.4 | 31.7 | 31.1 | viability, T/C [26]: 22.6%; viability, T/C (second compound 0.0316 µM, first compound 0.316 µM): 23.2%; viability, T/C (second compound 0.0316 µM, first compound 1 µM): 22.9%; viability, T/C (second compound 0.0316 µM, first compound 3.16 µM): 23.6%; viability, T/C [27]: 18.7%; viability, T/C (second compound 0.1 µM, first compound 0.316 µM): 20.7%; viability, T/C (second compound 0.1 µM, first compound 1 µM): 20.7%; viability, T/C (second compound 0.1 µM, first compound 3.16 µM): 21.2%; viability, T/C [28]: 19.7%; viability, T/C (second compound 0.316 µM, first compound 0.316 µM): 17.9%; viability, T/C (second compound 0.316 µM, first compound 1 µM): 30.9%; viability, T/C (second compound 0.316 µM, first compound 3.16 µM): 21.3%; viability, T/C [29]: 18.2%; viability, T/C (second compound 1 µM, first compound 0.316 µM): 16%; viability, T/C (second compound 1 µM, first compound 1 µM): 17.1%; viability, T/C (second compound 1 µM, first compound 3.16 µM): 17.2%; viability, T/C [30]: 26.5%; viability, T/C (second compound 3.16 µM, first compound 0.316 µM): 24.8%; viability, T/C (second compound 3.16 µM, first compound 1 µM): 27.7%; viability, T/C (second compound 3.16 µM, first compound 3.16 µM): 31.2%
3 | CN(C)C/C=C/C(=O)Nc1cc2c(Nc3ccc(F)c(Cl)c3)ncnc2cc1O[C@H]1CCOC1 + C=CC(=O)N1CCN(c2nc(OCC3CCCN3C)nc3c2CCN(c2cccc4cccc(C)c24)C3)CC1CC#N | 13 | 1.77 | 2.3 | 2.3 | < 0.316 | 75.1 | 66.2 | 55.9 | 49.6 | 49.9 | 66 | 52.5 | 42.4 | 40.9 | 43.1 | 39.2 | 41.9 | 40.7 | 17.3 | 17 | viability, T/C [26]: 47.9%; viability, T/C [8]: 48.4%; viability, T/C [27]: 42.3%; viability, T/C [11]: 56.2%; viability, T/C [12]: 51.1%; viability, T/C [13]: 53.2%; viability, T/C [28]: 39.1%; viability, T/C [16]: 62.5%; viability, T/C [17]: 52.4%; viability, T/C [18]: 52.6%; viability, T/C [29]: 42.5%; viability, T/C [21]: 36.8%; viability, T/C [22]: 34.9%; viability, T/C [23]: 19.4%; viability, T/C [30]: 14.7%
